Measured values published in US11814391B2, “Macrocyclic compounds for the treatment of medical disorders” (Achillion Pharmaceuticals, Inc., priority 2018, dated 2023).
Where two headings read alike, the source gives them in different places.

Tests used:
[1] = rcm bond, Grubbs II, toluene, 80.0 °C
[2] = biological target: Human Factor D (Homo sapiens (Human), UniProt P00746); test: Human Factor D assay; type: biochemical; settings: Human Factor D 80 nM, substrate Z-L-Lys-SBzl, A405; read-out: IC50 (Stars)
Procedure, shortened: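 Serum-purified human Factor D (80 nM final) preincubated 5 min at room temperature with compound in 50 mM Tris, 1M NaCl, pH 7.5. Reaction started with Z-L-Lys-SBzI and DTNB (100 μM each); A405 read every 30 s for 30 min. IC50 from nonlinear regression of reaction rates versus compound concentration.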

Sequence of Human Factor D (P00746 26-253): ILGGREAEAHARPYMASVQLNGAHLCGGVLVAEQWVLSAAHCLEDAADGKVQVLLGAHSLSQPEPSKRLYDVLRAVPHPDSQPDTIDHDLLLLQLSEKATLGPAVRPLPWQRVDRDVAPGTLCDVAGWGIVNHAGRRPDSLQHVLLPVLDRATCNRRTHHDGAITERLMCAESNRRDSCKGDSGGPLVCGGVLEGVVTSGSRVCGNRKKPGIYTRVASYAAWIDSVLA

C=C(C)c1cc2c3c(c1)c(C(C)=O)nn3CC(=O)N1[C@H](C(=O)Nc3nc(C(F)(F)F)ccc3C)C[C@@]3(CNC(=O)CCCC=CC2)C[C@@H]13
ring closure, isolated yield ([1]; from C=CCCCC(=O)NC[C@@]12C[C@@H](C(=O)Nc3nc(C(F)(F)F)ccc3C)N(C(=O)Cn3nc(C(C)=O)c4cc(C(=C)C)cc(CC=C)c43)[C@@H]1C2, 17-membered ring, 1.43 mM, 16.0 h): 21.7%

CC(=O)c1nn2c3c(cc(-c4cnc(C)nc4)cc13)CC=CCCC(C)(C)C(=O)NC[C@@]13C[C@@H](C(=O)Nc4nc(C(F)(F)F)ccc4C)N(C(=O)C2)[C@@H]1C3
ring closure, isolated yield ([1]; from C=CCCC(C)(C)C(=O)NC[C@@]12C[C@@H](C(=O)Nc3nc(C(F)(F)F)ccc3C)N(C(=O)Cn3nc(C(C)=O)c4cc(-c5cnc(C)nc5)cc(CC=C)c43)[C@@H]1C2, 17-membered ring, 1.6 mM, 16.0 h): 71.3%

CC(=O)c1nn2c3c(cc(-c4cnc(C)nc4)cc13)CC=CCCCC(=O)N(C)C[C@@]13C[C@@H](C(=O)Nc4cc(F)cc(Br)n4)N(C(=O)C2)[C@@H]1C3
ring closure, isolated yield ([1]; from C=CCCCC(=O)N(C)C[C@@]12C[C@@H](C(=O)Nc3cc(F)cc(Br)n3)N(C(=O)Cn3nc(C(C)=O)c4cc(-c5cnc(C)nc5)cc(CC=C)c43)[C@@H]1C2, 17-membered ring, 1.29 mM, 16.0 h): 94.5%

CC(=O)c1nn2c3c(cc(-c4cnc(C)nc4)cc13)CC=CCCCCN(C(=O)OC(C)(C)C)C[C@@]13C[C@@H](C(=O)Nc4nc(C(F)(F)F)ccc4C)N(C(=O)C2)[C@@H]1C3
ring closure, isolated yield ([1]; from C=CCCCCN(C[C@@]12C[C@@H](C(=O)Nc3nc(C(F)(F)F)ccc3C)N(C(=O)Cn3nc(C(C)=O)c4cc(-c5cnc(C)nc5)cc(CC=C)c43)[C@@H]1C2)C(=O)OC(C)(C)C, 17-membered ring, 1.2 mM): 60.4%

CC(=O)c1nn2c3c(cc(-c4cnc(C)nc4)cc13)CC=CCC[C@@H](C)C(=O)NC[C@@]13C[C@@H](C(=O)Nc4cc(F)cc(Br)n4)N(C(=O)C2)[C@@H]1C3
ring closure, isolated yield ([1]; from C=CCC[C@@H](C)C(=O)NC[C@@]12C[C@@H](C(=O)Nc3cc(F)cc(Br)n3)N(C(=O)Cn3nc(C(C)=O)c4cc(-c5cnc(C)nc5)cc(CC=C)c43)[C@@H]1C2, 17-membered ring, 1.63 mM, 16.0 h): 72.6%

CC(=O)c1nn2c3c(cc(-c4cnc(C)nc4)cc13)CC=CCC[C@@H](C)C(=O)NC[C@@]13C[C@@H](C(=O)Nc4ccc(F)c(Br)n4)N(C(=O)C2)[C@@H]1C3
ring closure, isolated yield ([1]; from C=CCC[C@@H](C)C(=O)NC[C@@]12C[C@@H](C(=O)Nc3ccc(F)c(Br)n3)N(C(=O)Cn3nc(C(C)=O)c4cc(-c5cnc(C)nc5)cc(CC=C)c43)[C@@H]1C2, 17-membered ring, 1.67 mM): 62.8%

CC(=O)c1nn2c3c(cc(-c4cnc(C)nc4)cc13)CCCCCCC=CCCN([C@@H](C)C(=O)Nc1nc(Br)ccc1C)C(=O)C2
ring closure, isolated yield ([1]; from C=CCCCCCCc1cc(-c2cnc(C)nc2)cc2c(C(C)=O)nn(CC(=O)N(CCC=C)[C@@H](C)C(=O)Nc3nc(Br)ccc3C)c12, 16-membered ring, 1.33 mM, 16.0 h): 88.9%

CC(=O)c1nn2c3c(cc(-c4cnc(C)nc4)cc13)CCCCCCC=CCc1ccc(Br)nc1NC(=O)[C@H](C)N(C)C(=O)C2
ring closure, isolated yield ([1]; from C=CCCCCCCc1cc(-c2cnc(C)nc2)cc2c(C(C)=O)nn(CC(=O)N(C)[C@@H](C)C(=O)Nc3nc(Br)ccc3CC=C)c12, 20-membered ring, 1.4 mM, 16.0 h): 63.8%

CC(=O)c1nn2c3c(cc(-c4cnc(C)nc4)cc13)N(C(=O)OCc1ccccc1)CC=CCCC(=O)NCC13CC(C(=O)Nc4nc(C(F)(F)F)ccc4C)N(C(=O)C2)C1C3 (centres unmarked)
ring closure, isolated yield ([1]; from C=CCCC(=O)NCC12CC(C(=O)Nc3nc(C(F)(F)F)ccc3C)N(C(=O)Cn3nc(C(C)=O)c4cc(-c5cnc(C)nc5)cc(N(CC=C)C(=O)OCc5ccccc5)c43)C1C2, 17-membered ring, 1.42 mM): 57.2%

CC(=O)c1nn2c3c(cc(-c4cnc(C)nc4)cc13)NC(=O)CCC=CCOCC13CC(C(=O)Nc4nc(C(F)(F)F)ccc4C)N(C(=O)C2)C1C3 (centres unmarked)
ring closure, isolated yield ([1]; from C=CCCC(=O)Nc1cc(-c2cnc(C)nc2)cc2c(C(C)=O)nn(CC(=O)N3C(C(=O)Nc4nc(C(F)(F)F)ccc4C)CC4(COCC=C)CC34)c12, 17-membered ring, 1.35 mM): 65.8%

CC(=O)c1nn2c3c(cc(-c4cnc5cc(C)nn5c4)cc13)CC=CCC[C@@H](C)C(=O)NC[C@@]13C[C@@H](C(=O)Nc4nc(C(F)(F)F)ccc4C)N(C(=O)C2)[C@@H]1C3
ring closure, isolated yield ([1]; from C=CCC[C@@H](C)C(=O)NC[C@@]12C[C@@H](C(=O)Nc3nc(C(F)(F)F)ccc3C)N(C(=O)Cn3nc(C(C)=O)c4cc(-c5cnc6cc(C)nn6c5)cc(CC=C)c43)[C@@H]1C2, 17-membered ring, 1.64 mM): 66.7%

CC(=O)c1nn2c3c(cc(-c4nnc(C)o4)cc13)CC=CCCCC(=O)NC[C@@]13C[C@@H](C(=O)Nc4nc(C(F)(F)F)ccc4C)N(C(=O)C2)[C@@H]1C3
ring closure, isolated yield ([1]; from C=CCCCC(=O)NC[C@@]12C[C@@H](C(=O)Nc3nc(C(F)(F)F)ccc3C)N(C(=O)Cn3nc(C(C)=O)c4cc(-c5nnc(C)o5)cc(CC=C)c43)[C@@H]1C2, 17-membered ring, 1.36 mM, 16.0 h): 83.2%

CC(=O)c1nn2c3c(cc(C)cc13)CC=CCCCC(=O)NC[C@@]13C[C@@H](C(=O)Nc4nc(C(F)(F)F)ccc4C)N(C(=O)C2)[C@@H]1C3
ring closure, isolated yield ([1]; from C=CCCCC(=O)NC[C@@]12C[C@@H](C(=O)Nc3nc(C(F)(F)F)ccc3C)N(C(=O)Cn3nc(C(C)=O)c4cc(C)cc(CC=C)c43)[C@@H]1C2, 17-membered ring, 1.77 mM, 16.0 h): 86.7% | ring closure, isolated yield ([1]; from C=CCCCC(=O)NC[C@@]12C[C@@H](C(=O)Nc3nc(C(F)(F)F)ccc3C)N(C(=O)Cn3nc(C(C)=O)c4cc(C)cc(CC=C)c43)[C@@H]1C2, 17-membered ring, 1.88 mM, 12.0 h): 62.6%

CC(=O)c1nn2c3c(cc(C=C(C)C)cc13)CC=CCCCC(=O)NC[C@@]13C[C@@H](C(=O)Nc4nc(C(F)(F)F)ccc4C)N(C(=O)C2)[C@@H]1C3
ring closure, isolated yield ([1]; from C=CCCCC(=O)NC[C@@]12C[C@@H](C(=O)Nc3nc(C(F)(F)F)ccc3C)N(C(=O)Cn3nc(C(C)=O)c4cc(C=C(C)C)cc(CC=C)c43)[C@@H]1C2, 17-membered ring, 1.67 mM, 16.0 h): 69.4%

CC(=O)c1nn2c3c(cc(CCC(C)C)cc13)CC=CCCCC(=O)NC[C@@]13C[C@@H](C(=O)Nc4nc(C(F)(F)F)ccc4C)N(C(=O)C2)[C@@H]1C3
ring closure, isolated yield ([1]; from C=CCCCC(=O)NC[C@@]12C[C@@H](C(=O)Nc3nc(C(F)(F)F)ccc3C)N(C(=O)Cn3nc(C(C)=O)c4cc(CCC(C)C)cc(CC=C)c43)[C@@H]1C2, 17-membered ring, 1.38 mM, 16.0 h): 27.7%

CC(=O)c1nn2c3c(cc(N4CCCC4)cc13)CC=CCCCC(=O)NC[C@@]13C[C@@H](C(=O)Nc4nc(C(F)(F)F)ccc4C)N(C(=O)C2)[C@@H]1C3
ring closure, isolated yield ([1]; from C=CCCCC(=O)NC[C@@]12C[C@@H](C(=O)Nc3nc(C(F)(F)F)ccc3C)N(C(=O)Cn3nc(C(C)=O)c4cc(N5CCCC5)cc(CC=C)c43)[C@@H]1C2, 17-membered ring, 2.0 mM, 16.0 h): 92.5%

CC(=O)c1nn2c3c(cc(NC(=O)OC(C)(C)C)cc13)CC=CCCCC(=O)NC[C@@]13C[C@@H](C(=O)Nc4nc(C(F)(F)F)ccc4C)N(C(=O)C2)[C@@H]1C3
ring closure, isolated yield ([1]; from C=CCCCC(=O)NC[C@@]12C[C@@H](C(=O)Nc3nc(C(F)(F)F)ccc3C)N(C(=O)Cn3nc(C(C)=O)c4cc(NC(=O)OC(C)(C)C)cc(CC=C)c43)[C@@H]1C2, 17-membered ring, 1.3 mM, 16.0 h): 78.9%

CC(=O)c1nn2c3c(cc(OCC(C)C)cc13)CC=CCCCC(=O)NC[C@@]13C[C@@H](C(=O)Nc4nc(C(F)(F)F)ccc4C)N(C(=O)C2)[C@@H]1C3
ring closure, isolated yield ([1]; from C=CCCCC(=O)NC[C@@]12C[C@@H](C(=O)Nc3nc(C(F)(F)F)ccc3C)N(C(=O)Cn3nc(C(C)=O)c4cc(OCC(C)C)cc(CC=C)c43)[C@@H]1C2, 17-membered ring, 1.71 mM, 16.0 h): 92%

CC(=O)c1nn2c3c(cc(Oc4ncc(C)cn4)cc13)CC=CCCCC(=O)NC[C@@]13C[C@@H](C(=O)Nc4nc(C(F)(F)F)ccc4C)N(C(=O)C2)[C@@H]1C3
ring closure, isolated yield ([1]; from C=CCCCC(=O)NC[C@@]12C[C@@H](C(=O)Nc3nc(C(F)(F)F)ccc3C)N(C(=O)Cn3nc(C(C)=O)c4cc(Oc5ncc(C)cn5)cc(CC=C)c43)[C@@H]1C2, 17-membered ring, 1.5 mM): 61.5%

CN(C(=O)OCc1ccccc1)[C@H]1CC=CCCCCCCc2ccc(Br)nc2NC1=O
ring closure, isolated yield ([1]; from C=CCCCCCCc1ccc(Br)nc1NC(=O)[C@H](CC=C)N(C)C(=O)OCc1ccccc1, 14-membered ring, 1.85 mM, 16.0 h): 79.6%

CC(=O)c1nn2c3c(cc(-c4cnc(C)nc4)cc13)NC(=O)CCCCCOCC13CC(C(=O)Nc4nc(C(F)(F)F)ccc4C)N(C(=O)C2)C1C3 [Compound 60, (41R,43S,45S)-13-acetyl-N-(3-methyl-6-(trifluoromethyl)pyridin-2-yl)-15-(2-methylpyrimidin-5-yl)-3,12-dioxo-11H-6-oxa-42,13-diaza-1(1,7)-indazola-4(2,5)-bicyclo[3.1.0]hexanacyclotridecaphane-43-carboxamide]
IC50 [2]: < 1000 nM

CC(=O)c1nn2c3c(cc(-c4cnc(C)nc4)cc13)CCCCCC(C)(C)CNC[C@@]13C[C@@H](C(=O)NC4CC(C)(C)C4)N(C(=O)C2)[C@@H]1C3 [Compound 61, (41R,43S,45R)-13-acetyl-N-(3,3-dimethylcyclobutyl)-8,8-dimethyl-15-(2-methylpyrimidin-5-yl)-3-oxo-11H-42,6-diaza-1(1,7)-indazola-4(2,5)-bicyclo[3.1.0]hexanacyclotridecaphane-43-carboxamide]
IC50 [2]: < 1000 nM
